Values joined by “and” are separate entries in the source; they are usually repeats but may differ in a detail not shown here. Equal values may be shown once. Read-outs that look alike come from different tables or passages of the source.
How the values were obtained:
[1] = system: primary human lymphoblasts; experiment: Cholesterol Biosynthesis Assay (sterol profiles of cultured cells); type: cell-based; settings: for Percent Sterols: 2. C28 Sterols / Percent Sterols: 3. C29 Sterols / Percent Sterols: Cholesterol / Percent Sterols: c. Cholesta-7,24-dien-3ß-ol / Percent Sterols: d. Zymosterol / Percent Sterols: e. Cholesta-8(14)-en-3ß-ol / Percent Sterols: f. 7 Dehydrocholesterol / Total Sterols (µg/mg protein) / Percent Sterols: h. C27 Sterol 1 (mw 384) / Percent Sterols: j. C27 Oxysterol 1 (mw 400) / Percent Sterols: k. C27 Oxysterol 2 (mw 400) / Percent Sterols: i. C27 Sterol 2 (mw 382): five days
His6Hh-C = biological target: T1, His6Hh-C (Drosophila melanogaster, UniProt Q02936); experiment: In vitro Hh autoprocessing reaction with purified components; type: biochemical; settings: for interference with cholesterol-stimulated autoprocessing: 12 µM cholesterol, 3 hours at 30° C, up to 27-fold excess to cholesterol; for His6Hh-C autocleavage reaction in the presence of compound without sterol: absence of cholesterol, up to 324 µM
T1 construct: made in house

Shh-N = experiment: Intermediate neural plate explant response to exogenous Shh-N protein; type: cell-based, chick
BMP7 = experiment: Neural plate explant response to BMP7 (migratory HNK-1 positive cells); type: cell-based, chick; settings: 100 ng/ml BMP7, ventral neural plate explants
Ptc -/- MEFs = experiment: β-galactosidase activity in ptc-lacZ mouse embryonic fibroblasts; type: cell-based; settings: Ptc -/- MEFs 21-4, 16 hours (Figure 15)
Excerpt: These studies involve the use of mouse embryonic fibroblasts (MEFs) that were generated by trypsin digestion of E8.5 embryos from patched (ptc) +/- matings.
The MEF line 23-4 is heterozygous for ptc-lacZ, and thus contains one functional ptc allele capable of maintaining a repressed state of the pathway, but will express lacZ when the pathway is activated by addition of Shh protein (see Figure 12).

T1 sequence (Q02936 252-471): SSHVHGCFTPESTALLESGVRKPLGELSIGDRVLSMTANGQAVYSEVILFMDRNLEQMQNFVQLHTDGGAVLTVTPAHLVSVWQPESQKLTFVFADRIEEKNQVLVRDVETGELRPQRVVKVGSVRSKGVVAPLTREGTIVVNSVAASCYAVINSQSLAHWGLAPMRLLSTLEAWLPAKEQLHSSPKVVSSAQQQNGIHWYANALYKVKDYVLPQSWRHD

SMILES	Percent Sterols: b. 7 Dehydrodesmosterol [1]	Percent Sterols: Cholesterol ([1]; 1.25 µM)	Percent Sterols: c. Cholesta-7,24-dien-3ß-ol ([1]; 1.25 µM)	Percent Sterols: e. Cholesta-8(14)-en-3ß-ol ([1]; 1.25 µM)	Percent Sterols: f. 7 Dehydrocholesterol ([1]; 1.25 µM)	Total Sterols (µg/mg protein) ([1]; 1.25 µM)	Percent Sterols: Cholesterol ([1]; 2.5 µM)	Percent Sterols: c. Cholesta-7,24-dien-3ß-ol ([1]; 2.5 µM)	Percent Sterols: e. Cholesta-8(14)-en-3ß-ol ([1]; 2.5 µM)	Percent Sterols: f. 7 Dehydrocholesterol ([1]; 2.5 µM)	Total Sterols (µg/mg protein) ([1]; 2.5 µM)	Percent Sterols: 2. C28 Sterols ([1]; 5.0 µM)	Percent Sterols: 3. C29 Sterols ([1]; 5.0 µM)	Percent Sterols: Cholesterol ([1]; 5.0 µM)	Percent Sterols: c. Cholesta-7,24-dien-3ß-ol ([1]; 5.0 µM)	Percent Sterols: e. Cholesta-8(14)-en-3ß-ol ([1]; 5.0 µM)	Percent Sterols: f. 7 Dehydrocholesterol ([1]; 5.0 µM)	Total Sterols (µg/mg protein) ([1]; 5.0 µM)	interference with cholesterol-stimulated autoprocessing (His6Hh-C)	His6Hh-C autocleavage reaction in the presence of compound without sterol (His6Hh-C)	other results
CC1=C2C[C@H]3[C@@H](CC=C4C[C@@H](O)CC[C@@]43C)[C@@H]2CC[C@]12O[C@@H]1C[C@H](C)CN[C@H]1[C@H]2C [Cyclopamine, cyclopamine]	0.8%	87%	0.6%	0.9%	2.4%	8.4 µg/mg protein	76%	0.9%	2.5%	4.2%	8.5 µg/mg protein	1.8%	3.1%	68%	1.6%	2.7%	6.3%	8.3 µg/mg protein	does not interfere with autoprocessing	does not proceed	Percent Sterols: 2. C28 Sterols ([1]; 1.25 µM): 1.2%; Percent Sterols: 3. C29 Sterols ([1]; 1.25 µM): 0.7%; Percent Sterols: d. Zymosterol ([1]; 1.25 µM): 2.3%; Percent Sterols: 2. C28 Sterols ([1]; 2.5 µM): 1.3%; Percent Sterols: 3. C29 Sterols ([1]; 2.5 µM): 1.2%; Percent Sterols: d. Zymosterol ([1]; 2.5 µM): 4.5%; Percent Sterols: d. Zymosterol ([1]; 5.0 µM): 4.7%; concentration that inhibits the repression of Pax7 expression by 2 nM Shh-N (Shh-N): 0.0625 µM; doses at which HNF3β and Isl-1 induction are completely blocked (Shh-N): 0.25 µM; intermediate levels at which induction of HNF3β is blocked while induction of Isl-1 is maintained or expanded (Shh-N): 0.125 µM; Induction of migratory HNK-1 positive cells by BMP7 (BMP7; 10 µM): not inhibited
C[C@H]1CC[C@]2(NC1)O[C@H]1C[C@H]3[C@@H]4CC[C@H]5C[C@@H](O)CC[C@]5(C)[C@H]4CC[C@]3(C)[C@H]1[C@@H]2C [Tomatidine, tomatidine]	0.8% and 0.5%	54%	0.9%	6.7%	19%	7.8 µg/mg protein	42%	0.9%	8.9%	14%	7.8 µg/mg protein	1.6%	3.1%	32%	0.7%	8.7%	9.8%	5.6 µg/mg protein	does not interfere with autoprocessing	does not proceed	Percent Sterols: g. Lathosterol [1]: 4.9% and 4.7% and 3.6%; Percent Sterols: h. C27 Sterol 1 (mw 384) ([1]; 1.25 µM): 7.0%; Percent Sterols: j. C27 Oxysterol 1 (mw 400) ([1]; 1.25 µM): 1.0%; Percent Sterols: k. C27 Oxysterol 2 (mw 400) ([1]; 1.25 µM): 2.0%; Percent Sterols: h. C27 Sterol 1 (mw 384) ([1]; 2.5 µM): 13%; Percent Sterols: i. C27 Sterol 2 (mw 382) ([1]; 2.5 µM): 4.1%; Percent Sterols: j. C27 Oxysterol 1 (mw 400) ([1]; 2.5 µM): 2.4%; Percent Sterols: k. C27 Oxysterol 2 (mw 400) ([1]; 2.5 µM): 5.0%; Percent Sterols: h. C27 Sterol 1 (mw 384) ([1]; 5.0 µM): 20%; Percent Sterols: i. C27 Sterol 2 (mw 382) ([1]; 5.0 µM): 4.7%; Percent Sterols: j. C27 Oxysterol 1 (mw 400) ([1]; 5.0 µM): 4.5%; Percent Sterols: k. C27 Oxysterol 2 (mw 400) ([1]; 5.0 µM): 11%; concentrations producing partial inhibition relative to those required for complete inhibition by jervine and cyclopamine (Shh-N): 100200 fold; concentration that inhibits the repression of Pax7 expression by 2 nM Shh-N (Shh-N; 2 nM Shh-N, 20 hours): > 50 µM; effect on HNF3β and Isl-1 induction (Shh-N; 50 µM, 25 nM Shh-N): markedly reduces HNF3β induction and enhances Isl1-1 induction; effect on HNF3β and Isl-1 expression (Shh-N; Tomatidine at 25 nM (so in the source), 25 nM Shh-N): slight inhibitory effect; Induction of migratory HNK-1 positive cells by BMP7 (BMP7; 50 µM): not inhibited; reduction of β-galactosidase activity (Ptc -/- MEFs): cannot he achieved
